Reference: patent publication US20150133493A1, “COUMARIN-BASED COMPOUNDS FOR THE TREATMENT OF ALZHEIMER'S DISEASE AND CANCER” (Sloan-Kettering Institute for Cancer Research, priority 2008, published 2015)
Entries after “also recorded” stand apart in the source; their conditions may differ.

Tests used:
[1] = system: N2a mouse neuroblastoma cells that stably express Swedish-mutated APP; assay: Cell-based assay of secreted Aβ42, Aβ40, Aβ38 in APPsw-N2A cells; conditions: 24 hrs, in words, CS-1 up to 30 μM
Experimental: FIG. 3. Cellular evaluation of the coumarin-dimer CS-1 and its selective inhibition of Aβ42. Compounds were incubated with the APPsw-N2A mouse neuroblastoma cells for 24 hours and media were analyzed by biotinylated 4G8 and ruthenylated antibodies specific for each respective cleavage product. […] (d) Immunoprecipitation mass spectrometry analysis of CS-1 effect on secreted β-amyloid species. Aβ peptides were immunoprecipitated using 4G8 antibody and isolated with Protein G+/A agarose beads. Samples were analyzed by MALDI-MS. Samples shown are representative and each data point was performed in triplicate. (e) Cell-based Notch cleavage assay. HEK-293 cells were transfected with ΔE Notch construct and then Compound E and CS-1 were evaluated for their ability to inhibit γ-secretase-mediated Notch intracellular domain production. […] Western blot is representative and was performed in triplicate. (f) Effect of CS-1 on AICD production. N2A APPsw cell membrane was prepared and incubated with the indicated concentrations of CS-1 at 37° C. for 2 hours. The generated AICD and APP-CTFs were detected by Western Blotting using APPc antibody. Western blot is representative and was performed in triplicate.
We next set out to determine if the selective inhibition of Aβ42 was maintained in a cell-based system for APP processing. First, we compared our lead compound CS-1 (FIG. 3a) to Compound E (FIG. 3b) and the GSM compound indomethacin (FIG. 3c). N2a mouse neuroblastoma cells that stably express Swedish-mutated APP substrate were treated with the indicated compounds for 24 hrs at 37° C. Following 24 hr incubation period, the medium was collected from the cells and assayed for secreted Aβ42, Aβ40, and Aβ38. […] The result for indomethacin mirrored those findings by Kukar et al. whereby a different cell-based system was utilized (17), further validating our assay system for analysis of these Aβ species. […] This may reflect subtle variations between the cellular and in vitro conformations of γ-secretase. Nevertheless, the cell-based studies confirmed that CS-1 maintains a preference for inhibition of the γ-secretase mediated production of Aβ42 over Aβ40 or Aβ38, which is distinct to previously reported GSMs (17) and inhibitors (14-15, 18).
Cell membranes and solubilized γ-secretase were prepared as described previously (36). The in vitro and cell γ-secretase assays detecting either Aβ38, Aβ40, or Aβ42 cleavage were performed similar as previously described (21, 36). Cleaved product was detected using ruthenylated antibodies that recognize specific APP cleavage sites (Aβ31-38*, G2-10*, or G2-11* antibody for Aβ38, Aβ40, or Aβ42 respectively). The Km and Vmax in the presence and absence of γ-secretase inhibitors were analyzed by non-linear curve fit using the software SigmaPlot 8.0 with the Michaelis-Menten equation (v=Vm [S]/(Km+[S]; v: initial rate; Vm: maximum velocity; Km: the Michaelis-Menten constant, S: substrate).

γ-secretase active site = target: T1, γ-secretase active site (Homo sapiens, UniProt P49768); assay: Photolabeling of the γ-secretase active site (PS1-NTF) in HeLa membrane with probes L646, GY4, JC8, L505; type: binding; conditions: L458 and Compound E at 2 μM, CS-1 up to 100 μM
T1 construct: endogenous in cells; host or cells: HeLa membrane
Experimental: FIG. 4. Kinetic analysis of allosteric GSIs and evaluation of their effect on the γ-secretase active site architecture. (a) Kinetic analysis of CS1 was performed using our modified version of a previously reported in vitro γ-secretase activity assay. The inhibition kinetics were analyzed by using a non-linear curve fit with the Michaelis-Menten equation. Upper right inset: we replotted slopes against the inhibitor concentrations after performing double reciprocal conversion. (b) Schematic representation of the allosteric binding of the di-coumarin compounds to γ-secretase. This binding ultimately causes an alteration at the active site of γ-secretase. Black rectangle represents the coumarin-dimer compound. (c) The binding of L458 to the active site of γ-secretase and its interaction at various subpockets within the enzyme. (d) Chemical structure of the four photoaffinity probes utilized in the characterization of CS-1 effect on active site architecture. Hydroxyethylamine and benzophenone moieties are marked by blue and red, respectively. (e) Evaluation of CS-1 effect on the photolabeling of four probes. […] (f) Evaluation of CS-2 effect on the active site photolabeling by L505 and GY4. (g) Effect of Compound E on active site photolabling. […] Blotting was performed for PS1-NTF. The photolabeling blots are representative and were performed in triplicate.
We hypothesized that the allosteric binding of the di-coumarin compounds alters the conformation of the active site of γ-secretase and thereby preferentially affects the Aβ42 site cleavage (FIG. 4b). This raised the technical issue of how to probe the contours of the enzymatic active site. Although the structure of γ-secretase has been determined by cryoelectron microscopy (23), the resolution attained is not sufficient to investigate subtle changes within the active site. Consequently, we developed a series of active-site directed inhibitors that incorporate a photoreactive benzophenone entity into varied positions. Using these photoreactive probes, we assessed the effect of the di-coumarin inhibitor binding on the active site of γ-secretase. Since the efficiency of photoinsertion depends on the orientation of the probe and the proximity of residues within the active site, conformational change of the active site can alter the orientation of the probe and contact residues and lead to altered cross-linking efficiencies. Therefore, multiple photoactivatable, active-site directed GSIs will provide a practical approach to evaluate the changes within the active site following allosteric di-coumarin binding.
L458 contains a hydroxyethylamine transition-state isostere that mimics the tetrahedral intermediate of aspartyl proteases and this moiety hydrogen bonds with the catalytic aspartate residues of γ-secretase (20). According to the nomenclature of Schechter and Berger (24), L458 contains the P2, P1, P1′, P2′ and P3′ residues that putatively bind to the S2, S1, S1′, S2′ and S3′ subsites, respectively, within the active site of γ-secretase (FIG. 4c). We have developed a series of biotinylated, photoactivatable inhibitors based on the core structure of L458 that allow us to probe the sub-pockets of the γ-secretase active site (3, 25-26). These inhibitors all have an individual benzophenone group incorporated into L458 at either the P2, P1, P1′, or P3′ position and are referred to as L646, GY4, JC8 and L505 (FIG. 4d). Each of these inhibitors interacts and labels the S2, S1, S1′, and S3′ subsites, respectively, within the γ-secretase complex (FIG. 4c-d).
HeLa membrane was incubated with CHAPSO detergent and photoaffinity probe in the presence or absence of excess L458 or CS-1. Labeled presenilin was isolated using streptavidin beads, separated by SDS-PAGE and subsequently western blotted using anti-PS1-NTF antibodies. Again, presenilin is believed to contain the active site of γ-secretase, therefore we examined PS1 photolabeling. […]

## C[C@H](NC(=O)Cc1cc(F)cc(F)c1)C(=O)N[C@H]1N=C(c2ccccc2)c2ccccc2N(C)C1=O [Compound E]
[1]
  effect on secreted Aβ38 production: no inhibitory selectivity; also recorded: inhibited the production of all three β-amyloid species with equal potency
  effect on secreted Aβ40 production: no inhibitory selectivity; also recorded: inhibited the production of all three β-amyloid species with equal potency
  effect on secreted Aβ42 production: no inhibitory selectivity; also recorded: inhibited the production of all three β-amyloid species with equal potency
γ-secretase active site
  effect on JC-8 photolabeling of PS1-NTF (S1′ subsite): completely suppressed; also recorded: nonselectively blocked
  effect on L646 photolabeling of PS1-NTF (S2 subsite): completely suppressed; also recorded: nonselectively blocked
γ-secretase active site; CS-2 at 100 μM
  effect on GY-4 photolabeling of PS1-NTF (S1 subsite): completely suppressed; also recorded: nonselectively blocked
  effect on L505 photolabeling of PS1-NTF (S3′ subsite): completely suppressed; also recorded: nonselectively blocked
